Laboratory results reported in PMC5970223, “Multiplexed profiling of GPCR activities by combining split TEV assays and EXT-based barcoded readouts” (Scientific Reports, 2018).
Structures can show the parent of a compound that is named as a salt. Where two headings read alike, the source gives them in different places.

What was measured:
HRH1 = settings: cited from earlier work; for drug effect, IUPHAR: ref IUPHAR, Supplementary refs 2,3, 7, 10
HTR2A [1] = settings: cited from earlier work; for drug effect, PubChem: ref PubChem, Supplementary refs 1, 4–6, 8,9
serotonin receptor HTR1A = test system: T1, serotonin receptor HTR1A; experiment: multiplexed GPCRprofiler assay in U2OS cells; format: cell-based, human; settings: multiplexed GPCR assay
T1 construct: ORFs of GPCRs were PCR amplified; HA-Flag signal peptide (N); expressed in transfected cells; host or cells: U2OS
Method: (§1) Two hours after transfection, all cell populations were pooled, mixed, and evenly divided into fractions for plating onto assay dishes (Fig. 2a). The cells were cultured and stimulated under identical conditions for agonist or antagonist assays as initially described for GPCR split TEV assays (Supplementary Fig. S1a,b).
(§2) After cell lysis, RNA from each sample was isolated and converted into cDNA by reverse transcription. […] This permits the mixing of all samples and sequencing of all pooled samples using a single sequencing run (Fig. 2b). The sample barcodes enable tracing experimental conditions, whereas the read counts per EXTs serve as quantitative measurements for the corresponding GPCRs. […] From the normalized data the fold changes of receptor activities were finally calculated.
(§3) Next, we applied the multiplexed GPCRprofiler to measure the effects of GPCR targeting drugs on receptor activity. […] In addition, binding affinities to α-adrenergic receptors and the histamine receptor HRH1 were described for paliperidone using biochemical assays[38]–[40]. […] To address any changes in GPCR activities caused by the selected drugs, receptors were stimulated for 6 h applying two different parameters. First, to monitor agonistic effects, GPCRs were treated with the drugs only (Supplementary Fig. S1a). Second, to measure antagonistic effects, GPCRs were treated both with the drugs and the corresponding agonist (Supplementary Fig. S1b). This experimental design therefore allows to identify potential antagonistic effects of agonists and vice versa. For a profiling experiment, drugs were applied at increasing concentrations. […] Alternatively, a drug-induced inhibition of agonist-mediated GPCR activation specifies the drug as antagonist.
(§4) Cells were resuspended in culture medium without antibiotics at a density of 1.5 × 10^6 cells/ml (U2OS) or 3 × 10^6 cells/ml (PC12). […] Transfection-mixes were added to cell suspensions and incubated for 2 h at 37 °C without shaking. Suspensions were centrifuged for 5 min at 900 rpm and resuspended in culture medium to remove transfection reagents. All transfection samples were combined within one pool and plated on multiple wells of 6-well plates and incubated for 24 h at 37 °C. Afterwards, cells were starved for 17–18 h and then treated with compounds for 6 h in duplicates. After compound treatment cells were washed with PBS and 500 µl RLT lysis buffer was applied for cell lysis. Lysates were processed for sequencing as described below.
(§5) RNA was additional in solution treated with Turbo DNase (Ambion) for 30 min at 37 °C and repurified over an RNeasy column. First-strand cDNA synthesis was performed with 1 µg total RNA using superscript III reverse transcriptase (Invitrogen) and 120 pmol of a random nanomer primer. […] On order to differentiate different samples 13mer barcodes were introduced between 5′ Ion adapter and target sequence. All processed samples of an experiment were combined within one pool and purified using PCR clean-up kit (Macherey-Nagel).
(§6) Raw sequencing data analyses were done by using BLAST algorithm and in-house developed R scripts.

[2] = test system: T2, α-adrenergic receptor ADRA2C; experiment: multiplexed GPCRprofiler assay in U2OS cells; format: cell-based, human; settings: for drug-induced effect, GPCRprofiler: Supplementary Table S4, ADRA2C; for antagonistic effect on ADRA2C: U2OS cells, drug 1 h before agonist-mix (1 µM each)
T2 construct: ORFs of GPCRs were PCR amplified; expressed in transfected cells; host or cells: U2OS
Method: as §1, §2, §3, §4, §5, §6

histamine receptor HRH1 = test system: T3, histamine receptor HRH1; experiment: multiplexed GPCRprofiler assay in U2OS cells; format: cell-based, human; settings: for drug-induced effect, GPCRprofiler: Supplementary Table S4, HRH1; for antagonistic effect on HRH1: U2OS cells, drug 1 h before agonist-mix (1 µM each)
T3 construct: ORFs of GPCRs were PCR amplified; expressed in transfected cells; host or cells: U2OS
Method: as §1, §2, §3, §4, §5, §6

HTR2A [3] = settings: GF62 cells; cited from earlier work
ADRA2B = test system: ADRA2B; design: method as in PubChem, Supplementary refs 1, 6, 17; settings: ref PubChem, Supplementary refs 1, 6, 17; cited from earlier work
ADRA2C = test system: ADRA2C; design: method as in PubChem, Supplementary refs 1, 17; settings: ref PubChem, Supplementary refs 1, 17; cited from earlier work
serotonin receptor HTR2A [4] = molecular target: T4, serotonin receptor HTR2A (Homo sapiens, UniProt P28223); experiment: multiplexed GPCRprofiler assay in U2OS cells; format: cell-based; settings: for agonistic effect on HTR2A (drug alone): drug only for 6 h, subtle = less than 2-fold change, three consecutive increases
T4 sequence (P28223 81-471 limits assumed): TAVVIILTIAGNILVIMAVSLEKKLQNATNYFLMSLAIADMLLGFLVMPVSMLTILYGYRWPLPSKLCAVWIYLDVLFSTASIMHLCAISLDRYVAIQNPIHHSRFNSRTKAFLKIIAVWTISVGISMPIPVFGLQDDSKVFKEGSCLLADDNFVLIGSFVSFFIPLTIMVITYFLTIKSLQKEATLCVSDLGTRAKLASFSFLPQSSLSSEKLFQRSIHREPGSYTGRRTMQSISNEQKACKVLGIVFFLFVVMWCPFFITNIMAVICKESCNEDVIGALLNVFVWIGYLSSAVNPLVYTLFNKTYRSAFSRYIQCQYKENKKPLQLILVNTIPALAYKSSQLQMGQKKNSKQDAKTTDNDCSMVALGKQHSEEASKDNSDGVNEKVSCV
Method: as §1, §2
(§7) In addition to the stimulation with the single compounds, a compound-mixture (mix) of all agonists was tested. The first set of experiments were carried out in the human osteosarcoma cell line U2OS. We normalized the raw sequencing data to total read numbers of sample codes, followed by averaging reads of internal and external calibrator EXTs as described above (Supplementary Fig. S4).
as §3
Cells were resuspended in culture medium without antibiotics at a density of 1.5 × 10^6 cells/ml (U2OS) or 3 × 10^6 cells/ml (PC12). […] Transfection-mixes were added to cell suspensions and incubated for 2 h at 37 °C without shaking. Suspensions were centrifuged for 5 min at 900 rpm and resuspended in culture medium to remove transfection reagents.

serotonin receptor HTR2A [5] = molecular target: T4, serotonin receptor HTR2A; settings: PC12 cells
Method: as §1, §2
as §4, with “After compound treatment cells were washed with PBS and 500 µl RLT lysis buffer was applied for cell lysis. Lysates were processed for sequencing as described below.” left out

[6] = test system: dopamine and the adrenergic receptors; settings: U2OS cells, agonist 100 pM to 100 µM
Method: as §1, §2, §7, §4
(§8) RNA was additional in solution treated with Turbo DNase (Ambion) for 30 min at 37 °C and repurified over an RNeasy column. […]

serotonin receptor HTR5A = settings: U2OS cells (not in PC12 cells)
Method: as §1, §2, §7, §4, §8

HTR2A serotonin receptor = HTR2A serotonin receptor (Homo sapiens, UniProt P28223); experiment: single GPCR split TEV assay, luciferase readout (β-arrestin2 recruitment); format: cell-based; settings: standard single luciferase GPCR split TEV assay, validation (Fig. 4f); read-out: IC50 of HTR2A receptor inhibition
HTR2A serotonin receptor, sequence (P28223 81-471 limits assumed): as above
Text: (§9) GPCR split TEV assays allow monitoring ligand-dependent GPCR activities using the stimulation-dependent interaction of β-arrestin2 and a candidate GPCR. […] To do this, the NTEV fragment and the artificial transcription factor GAL4-VP16 (GV) were fused to the C-terminal end of a candidate GPCR, separated by a TEV cleavage site (tevS) (Fig. 1a,b). To improve the stability of the interaction between a given GPCR and the arrestin, a short sequence from the C-terminal end of the human arginine vasopressin receptor 2 (AVPR2) (abbreviated V2R) was introduced between a candidate GPCR and NTEV[17],[27]. V2R contains multiple phosphorylation sites for GRKs. These sites provide, when phosphorylated, enhanced binding of β-arrestin.
For these assays, cells were transiently transfected with GPCR split TEV components and reporters, which were allowed to express for 20 h. […] For antagonistic assays, compounds were added 1 h before agonist to ensure proper incubation (Supplementary Fig. S1b). For clarity, varying experimental conditions, such as plate formats, for applied assay formats are summarized in Supplementary Table S3.
For luciferase assays cells were plated on 96-well white plates at 4 × 10^4 cells/well (PC12) one day before the experiment. The assays were performed with 6 wells as replicates per condition. […]

dopamine receptor DRD2 [7] = molecular target: T5, dopamine receptor DRD2 (Homo sapiens, UniProt P14416); experiment: multiplexed GPCRprofiler assay in U2OS cells; format: cell-based
T5 sequence (P14416 1-414 isoform P14416-2): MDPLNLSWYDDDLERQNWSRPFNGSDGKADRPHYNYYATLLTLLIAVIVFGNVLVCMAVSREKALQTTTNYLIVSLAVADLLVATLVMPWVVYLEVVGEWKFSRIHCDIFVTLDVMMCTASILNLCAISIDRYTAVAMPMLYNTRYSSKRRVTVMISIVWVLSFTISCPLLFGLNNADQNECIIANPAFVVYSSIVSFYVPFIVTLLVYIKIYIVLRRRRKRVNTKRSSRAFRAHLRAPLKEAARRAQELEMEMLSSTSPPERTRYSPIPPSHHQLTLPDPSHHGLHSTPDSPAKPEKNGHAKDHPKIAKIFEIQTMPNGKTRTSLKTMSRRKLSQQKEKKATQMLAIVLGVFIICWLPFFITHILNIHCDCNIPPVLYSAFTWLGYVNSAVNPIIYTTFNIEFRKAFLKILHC

dopamine receptor DRD2 [8] = molecular target: T5, dopamine receptor DRD2; experiment: standard single luciferase GPCR split TEV assay; format: cell-based; settings: validation (Fig. 4e), read-out: IC50 of DRD2 receptor inhibition
Text: as §9
For luciferase assays cells were plated on 96-well white plates at 4 × 10^4 cells/well (PC12) one day before the experiment. The assays were performed with 6 wells as replicates per condition. […] Plasmids and lipofectamine 2000 transfection reagent (Invitrogen) were diluted in opti-MEM (Gibco) and incubated for 20 min at room temperature. Medium was removed from cells, the transfection-mix was added and the plates incubated for 2 h at 37 °C, followed by the adding of double-volume of culture medium to dilute transfection reagents. […]

[9] = test system: T6, α-adrenergic receptor ADRA2B; experiment: multiplexed GPCRprofiler assay in U2OS cells; format: cell-based, human
T6 construct: ORFs of GPCRs were PCR amplified; expressed in transfected cells; host or cells: U2OS (multiplexed assays)
Method: as §1, §2, §3, §4, §5, §6

DRD2 = settings: ref PubChem, Supplementary refs 1, 4,5, 12–14; cited from earlier work
[10] = U2OS cells, drug 1 h before agonist-mix (1 µM each)

What does the source list for O=C1CCc2ccc(OCCCCN3CCN(c4cccc(Cl)c4Cl)CC3)cc2N1 [Aripiprazole]?
drug effect, IUPHAR (HRH1): Antagonist; drug effect, PubChem (HRH1; ref PubChem, Supplementary refs 1, 4–6, 17): Antagonist; drug effect, PubChem (HTR2A [1]): Antagonist; partial agonism on HTR1A (serotonin receptor HTR1A): not detected; drug-induced effect, GPCRprofiler [2]: Antagonist; antagonistic effect on ADRA2C [2]: inhibited; drug-induced effect, GPCRprofiler (histamine receptor HRH1): Antagonist; antagonistic effect on HRH1 (histamine receptor HRH1): inhibited; effect on HTR2A reported in the literature (HTR2A [3]): weak partial agonistic effect; drug effect, PubChem (ADRA2B): Antagonist; drug effect, PubChem (ADRA2C): Antagonist; agonistic effect on HTR2A (drug alone) (serotonin receptor HTR2A [4]; U2OS cells): concentration-dependent agonistic effect; agonistic effect on HTR2A (drug alone) (serotonin receptor HTR2A [4]; U2OS cells, listed as aripiprazole): subtle agonistic effects

What does the source list for NCCc1ccc(O)c(O)c1 [Dopamine, Dopamine hydrochloride]?
activation of HTR2A by non-cognate agonist (serotonin receptor HTR2A [5]): activation; signals of both receptor subfamilies (dopamine and adrenergic) upon stimulation [6]: elevated signals; activation of HTR5A by non-cognate agonist (serotonin receptor HTR5A): activated by dopamine in U2OS cells only; activation of HTR2A by non-cognate agonist (serotonin receptor HTR2A [4]; U2OS cells): activation

Which IC50 (HTR2A serotonin receptor) does the source give for Cc1nc2n(c(=O)c1CCN1CCC(c3noc4cc(F)ccc34)CC1)CCCC2O (stereo not shown) [Paliperidone] here?
The IC50 was 3.65 nM.

And the “drug effect, IUPHAR” value (HRH1)?
Its value is “Antagonist”.

What about the “drug-induced effect, GPCRprofiler” value (dopamine receptor DRD2 [7]; Supplementary Table S4, DRD2) of the same molecule?
The value was “Antagonist”.

What about the “antagonistic effect on DRD2” value (dopamine receptor DRD2 [7]; [10]) of the same molecule?
Its value is “dose-dependent inhibition of receptor activity”.

And the “drug effect, IUPHAR” value (HTR2A [1]; ref IUPHAR, Supplementary refs 2,3, 7, 10,11)?
Its value is “Antagonist”.

What about the “drug effect, PubChem” value (HTR2A [1]) of the same molecule?
Its value is “Antagonist”.

What about the IC50 (dopamine receptor DRD2 [8]) of the same molecule?
Its IC50 is 188 nM.

What about the “drug-induced effect, GPCRprofiler” value ([9]; Supplementary Table S4, ADRA2B) of the same molecule?
The value was “Antagonist”.

And the “antagonistic effect on ADRA2B” value [9, 10]?
Its value is “dose-dependent inhibition of receptor activity”.

And the “drug-induced effect, GPCRprofiler” value [2]?
Its value is “Antagonist”.

What about the “antagonistic effect on ADRA2C” value [2] of the same molecule?
Its value is “dose-dependent inhibition of receptor activity”.

And the “drug-induced effect, GPCRprofiler” value (histamine receptor HRH1)?
Its value is “Antagonist”.

And the “antagonistic effect on HRH1” value (histamine receptor HRH1)?
Its value is “dose-dependent inhibition of receptor activity”.

And the “drug effect, PubChem” value (DRD2)?
The value was “Antagonist”.

What about the “drug effect, PubChem” value (ADRA2B) of the same molecule?
Its value is “Antagonist”.

What about the “drug-induced effect, GPCRprofiler” value (serotonin receptor HTR2A [4]; Supplementary Table S4, HTR2A) of the same molecule?
The value was “Antagonist”.

What about the “antagonistic effect on HTR2A” value (serotonin receptor HTR2A [4]; [10]) of the same molecule?
The value was “dose-dependent inhibition of receptor activity”.
